Where “and” joins values, the source holds several entries; their conditions need not be identical. Equal values may be shown once. Read-outs that look alike come from different tables or passages of the source. No end group written: not given here.
Columns and labels:
[1] = test system: Methicillin-resistant Staphylococcus aureus (MRSA)
[2] = test system: Staphylococcus aureus (RA) ATCC25923; conditions: Staphylococcus aureus (RA) ATCC25923; >25 means greater than or equal to 50 μg/mL
[3] = test system: Escherichia coli (E. coli) ATCC25922; conditions: >25 means greater than or equal to 50 μg/mL
Serratia fonticola = conditions: S. fonticola
Clostridium tetani = format: cell-based
Bordetella pertussis = conditions: B. pertussis
[4] = test system: methicillin-resistant coagulase-negative staphylococci (MRSCNS)
Clostridium perfringens = format: cell-based
[5] = test system: Shigella dysentery (dysentery bacilli)
[6] = test system: Corynebacterium diphtheriae; conditions: C. diphtheriae
[7] = test system: methicillin-sensitive coagulase-negative staphylococci (MSSCNS)
Neisseria gonorrhoeae = conditions: N. gonorrhoeae
[8] = test system: Streptococcus hemolyticus / S. pyogenes (β-hemolytic streptococcus); conditions: for Minimum inhibitory concentration MIC: test by the third party
Corynebacterium acnes = conditions: C. acnes
M. tuberculosis = test: MIC test by the third party; format: cell-based, Mycobacterium tuberculosis
Klebsiella pneumoniae = conditions: K. pneumoniae
Acinetobacter baumannii = conditions: A. baumannii (clinically isolated strain, 2 strains in Table 3)
Bacteroides fragilis = test: Bacteriostasis experiment on anaerobic bacterium, 96-well plate MIC; format: cell-based
Haemophilus influenza = conditions: H. influenzae
Neisseria meningitidis = conditions: N. meningitidis
[9] = Pseudomonas aeruginosa, strain not specified (Table 8)
[10] = Escherichia coli, strain not specified (Table 8)
[11] = Staphylococcus aureus (methicillin-sensitive), strain not specified (Table 8)
[12] = Methicillin-resistant Staphylococcus aureus (Table 8)
[13] = standard Escherichia coli (Table 2)
[14] = standard Staphylococcus aureus (Table 2)

FIKRIARLLRKIF [BmKAMP1-M, reference compound]
Minimum inhibitory concentration MIC (Pseudomonas aeruginosa; [9]): 50 µg/mL
Minimum inhibitory concentration MIC (Escherichia coli; [10]): 12.5 µg/mL
Minimum inhibitory concentration MIC (Staphylococcus aureus; [11]): 12.5 µg/mL
Minimum inhibitory concentration MIC [1, 12]: 6.25 µg/mL

FIRIARLLKIF [Ctryamp-R9K, FIRIARLLKIF]
Minimum inhibitory concentration MIC (Escherichia coli; [13]): 12.5 µg/mL
Minimum inhibitory concentration MIC (Staphylococcus aureus; [14]): 6.25 µg/mL

FIRIARLLHIF [Ctryamp-R9H, FIRIARLLHIF]
Minimum inhibitory concentration MIC (Escherichia coli; [13]): 6.25 µg/mL
Minimum inhibitory concentration MIC (Staphylococcus aureus; [14]): 6.25 µg/mL

FIHIARLLHIF [Ctryamp-6, FIHIARLLHIF]
Minimum inhibitory concentration MIC (Escherichia coli; [13]): 6.25 µg/mL
Minimum inhibitory concentration MIC (Staphylococcus aureus; [14]): 6.25 µg/mL

FIHIARLLRIF [Ctryamp-R3H, FIHIARLLRIF]
Minimum inhibitory concentration MIC (Escherichia coli; [13]): 6.25 µg/mL
Minimum inhibitory concentration MIC (Staphylococcus aureus; [14]): 6.25 µg/mL

FIHIAKLLRIF [Ctryamp-7, FIHIAKLLRIF]
Minimum inhibitory concentration MIC (Escherichia coli; [13]): 12.5 µg/mL
Minimum inhibitory concentration MIC (Staphylococcus aureus; [14]): 6.25 µg/mL

FIRIAKLLKIF [Ctryamp-3, FIRIAKLLKIF]
MIC [2]: 12.5 µg/mL
Minimum inhibitory concentration MIC (Escherichia coli; [13]): 12.5 µg/mL
Minimum inhibitory concentration MIC (Staphylococcus aureus; [14]): 6.25 µg/mL
MIC [3]: 12.5 µg/mL

FIKIAKLLKIF [Ctryamp-4, FIKIAKLLKIF]
MIC [2]: 25 µg/mL
Minimum inhibitory concentration MIC (Escherichia coli; [13]): 6.25 µg/mL
Minimum inhibitory concentration MIC (Staphylococcus aureus; [14]): 12.5 µg/mL
MIC [3]: 12.5 µg/mL

FIGAIARLLSKIF [BmKAMP1, reference compound]
Minimum inhibitory concentration MIC (Pseudomonas aeruginosa; [9]): >100 µg/mL
Minimum inhibitory concentration MIC (Escherichia coli; [10]): >100 µg/mL
Minimum inhibitory concentration MIC (Staphylococcus aureus; [11]): 3.13 µg/mL
Minimum inhibitory concentration MIC [1, 12]: 12.5 µg/mL

FIKIARLLRIF [Ctryamp-R3K, FIKIARLLRIF]
Minimum inhibitory concentration MIC (Escherichia coli; [13]): 12.25 µg/mL
Minimum inhibitory concentration MIC (Staphylococcus aureus; [14]): 6.25 µg/mL

FIRIAHLLRIF [Ctryamp-R5H, FIRIAHLLRIF]
Minimum inhibitory concentration MIC (Escherichia coli; [13]): 12.5 µg/mL
Minimum inhibitory concentration MIC (Staphylococcus aureus; [14]): 6.25 µg/mL

FIRIAKLLRIF [Ctryamp-R5K, FIRIAKLLRIF]
Minimum inhibitory concentration MIC (Escherichia coli; [13]): 6.25 µg/mL
Minimum inhibitory concentration MIC (Staphylococcus aureus; [14]): 6.25 µg/mL

FIRIARLLRIF [Ctryamp, FIRIARLLRIF]
Minimum inhibitory concentration MIC (E. faecium): 25 µg/mL
MIC (Enterococcus): 6.25 µg/mL
Minimum inhibitory concentration MIC (S. agalactiae): 25 µg/mL
Minimum inhibitory concentration MIC (Serratia fonticola): 12.5 µg/mL
Minimum inhibitory concentration MIC (S. pneumoniae): 3.13 µg/mL
Minimum inhibitory concentration MIC (Clostridium tetani): 25 µg/mL
Minimum inhibitory concentration MIC (Citrobacter): 12.5 µg/mL
Minimum inhibitory concentration MIC (E. faecalis): 50 µg/mL
MIC (Proteusbacillus vulgaris): 6.25 µg/mL
Minimum inhibitory concentration MIC (Bordetella pertussis): 3.13 µg/mL
Minimum inhibitory concentration MIC (E. cloacae): 12.5 µg/mL
Minimum inhibitory concentration MIC ([4]; 11 strains, test by the third party): 4 µg/mL
Minimum inhibitory concentration ([4]; stated jointly with MRSA, 4-8 = test results from the third party): 3.13 to 12.5 µg/mL and 4 to 8 µg/mL
Minimum inhibitory concentration MIC (Pseudomonas aeruginosa; P. aeruginosa ATCC27853 (standard strain), test by the third party): 8 µg/mL
Minimum inhibitory concentration MIC (Pseudomonas aeruginosa; P. aeruginosa IPM-R strain, 8 strains, test by the third party): 8 to 16 µg/mL
Minimum inhibitory concentration MIC (Pseudomonas aeruginosa; P. aeruginosa IPM-S strain, 4 strains, test by the third party): 8 to 16 µg/mL
Minimum inhibitory concentration MIC (Pseudomonas aeruginosa; [9]): 8 µg/mL
Minimum inhibitory concentration MIC (Clostridium perfringens): 25 µg/mL
Minimum inhibitory concentration MIC (Escherichia coli; ATCC25922 (non-ESBLs-producing), test by the third party): 4 µg/mL
Minimum inhibitory concentration MIC (Escherichia coli; ATCC35218 (ESBLs-producing), test by the third party): 4 µg/mL
Minimum inhibitory concentration MIC (Escherichia coli; E. coli ATCC25922 (standard strain)): 6.25 µg/mL
Minimum inhibitory concentration MIC (Escherichia coli; E. coli clinically isolated strain, 8 strains): 6.25 to 12.5 µg/mL
Minimum inhibitory concentration MIC (Escherichia coli; ESBLs-producing E. coli, 10 strains, test by the third party): 4 to 8 µg/mL
Minimum inhibitory concentration MIC (Escherichia coli; [10]): 6.25 to 12.5 µg/mL and 6.25 µg/mL
inhibition rate (Escherichia coli; at 6.25 μg/mL, Escherichia coli CCTCCAB94012): 100%
Minimum inhibitory concentration MIC (Escherichia coli; non-ESBLs-producing E. coli, 4 strains, test by the third party): 4 to 8 µg/mL
Minimum inhibitory concentration MIC (Escherichia coli; [13]): 12.5 µg/mL
Minimum inhibitory concentration MIC [5]: 6.25 µg/mL and 6.5 µg/mL
Minimum inhibitory concentration MIC [6]: 3.13 µg/mL
Minimum inhibitory concentration MIC ([7]; MSSCNS, 5 strains, test by the third party): 4 µg/mL
MIC ([7]; methicillin-sensitive coagulase-negative staphylococci): 3.13 to 12.5 µg/mL
Minimum inhibitory concentration MIC (Neisseria gonorrhoeae): 6.25 µg/mL
Minimum inhibitory concentration MIC (Staphylococcus aureus; S. aureus ATCC 29213, test by the third party): 8 µg/mL
Minimum inhibitory concentration MIC (Staphylococcus aureus; S. aureus clinically isolated strain, 17 strains): 1.63 to 6.25 µg/mL
Minimum inhibitory concentration MIC (Staphylococcus aureus; S. aureus standard strain ATCC25923): 6.25 µg/mL
inhibition rate (Staphylococcus aureus; at 6.25 μg/mL, Staphylococcus aureus CCTCCAB94004): 100%
Minimum inhibitory concentration MIC (Staphylococcus aureus; [14]): 6.25 µg/mL
Minimum inhibitory concentration MIC ([8]; Erythromycin-resistant S. pyogenes, 11 strains): 8 to 16 µg/mL
Minimum inhibitory concentration MIC ([8]; Erythromycin-sensitive S. pyogenes, 4 strains): 16 µg/mL
Minimum inhibitory concentration MIC ([8]; Streptococcus ATCC 19615 (standard strain)): 8 µg/mL
MIC ([8]; Streptococcus hemolyticus): 8 to 16 µg/mL
Minimum inhibitory concentration MIC (Corynebacterium acnes): 3.13 µg/mL
Minimum inhibitory concentration MIC (M. tuberculosis): 25 µg/mL
Minimum inhibitory concentration MIC (Salmonella typhimurium): 12.5 µg/mL
Minimum inhibitory concentration MIC (Klebsiella pneumoniae): 25 µg/mL
Minimum inhibitory concentration MIC (Acinetobacter baumannii): 12.5 µg/mL
Minimum inhibitory concentration MIC ([1]; MRSA, 5 strains): 3.13 to 12.5 µg/mL
Minimum inhibitory concentration MIC ([1]; MRSA, 11 strains, test by the third party): 4 to 8 µg/mL
Minimum inhibitory concentration MIC [1, 12]: 6.25 µg/mL
Minimum inhibitory concentration MIC (Bacteroides fragilis): 12.5 µg/mL
Minimum inhibitory concentration MIC (Haemophilus influenza): 3.13 µg/mL
Minimum inhibitory concentration MIC (K. oxytoca): 12.5 µg/mL
Minimum inhibitory concentration MIC (Neisseria meningitidis): 6.25 µg/mL

FIKIARLLKIF [Ctryamp-2, FIKIARLLKIF]
MIC [2]: 12.5 µg/mL
Minimum inhibitory concentration MIC (Escherichia coli; [13]): 6.25 µg/mL
Minimum inhibitory concentration MIC (Staphylococcus aureus; [14]): 12.5 µg/mL
MIC [3]: 12.5 µg/mL

FIRIAKLLHIF [Ctryamp-8, FIRIAKLLHIF]
Minimum inhibitory concentration MIC (Escherichia coli; [13]): 12.5 µg/mL
Minimum inhibitory concentration MIC (Staphylococcus aureus; [14]): 6.25 µg/mL

FIGAIARLLRKIF [ABP-W1, reference compound]
Minimum inhibitory concentration MIC (Pseudomonas aeruginosa; [9]): >100 µg/mL
Minimum inhibitory concentration MIC (Escherichia coli; [10]): >100 µg/mL
Minimum inhibitory concentration MIC (Staphylococcus aureus; [11]): 3.13 µg/mL
Minimum inhibitory concentration MIC [1, 12]: 8 µg/mL

FIHIAHLLRIF [Ctryamp-5, FIHIAHLLRIF]
Minimum inhibitory concentration MIC (Escherichia coli; [13]): 6.25 µg/mL
Minimum inhibitory concentration MIC (Staphylococcus aureus; [14]): 12.5 µg/mL

FIKIAKLLRIF [Ctryamp-1, FIKIAKLLRIF]
Minimum inhibitory concentration MIC (Escherichia coli; [13]): 6.25 µg/mL
Minimum inhibitory concentration MIC (Staphylococcus aureus; [14]): 6.25 µg/mL

LLRIFFIRIARLLRIF [Ctryamp polypeptide mutant 25, LLRIFFIRIARLLRIF]
MIC [2]: 25 µg/mL
MIC [3]: >25 µg/mL

FIRIARLLRIFFIRIARLLRIF [Ctryamp polypeptide mutant 31]
MIC [2]: >25 µg/mL
MIC [3]: >25 µg/mL

FIRIARLLIF [Ctryamp polypeptide mutant 11, FIRIARLLIF]
MIC [2]: >25 µg/mL
MIC [3]: >25 µg/mL

Reference: patent US10654895B2, “Polypeptide, DNA molecule encoding the polypeptide, vector, preparation method and use” (WUHAN MORE BIOTECHNOLOGY CO., LTD., priority 2013, dated 2020)
